Source: BindingDB's records for doi:10.1002/(SICI)1098-2396(200002)35:2<79::AID-SYN1>3.0.CO;2-X (Institut De Recherches Servier, 2000)
pKi: −log10 of the molar value.

Biological target: T1, 5-hydroxytryptamine receptor 2C (Homo sapiens, UniProt P28335)
T1 sequence (P28335 whole entry): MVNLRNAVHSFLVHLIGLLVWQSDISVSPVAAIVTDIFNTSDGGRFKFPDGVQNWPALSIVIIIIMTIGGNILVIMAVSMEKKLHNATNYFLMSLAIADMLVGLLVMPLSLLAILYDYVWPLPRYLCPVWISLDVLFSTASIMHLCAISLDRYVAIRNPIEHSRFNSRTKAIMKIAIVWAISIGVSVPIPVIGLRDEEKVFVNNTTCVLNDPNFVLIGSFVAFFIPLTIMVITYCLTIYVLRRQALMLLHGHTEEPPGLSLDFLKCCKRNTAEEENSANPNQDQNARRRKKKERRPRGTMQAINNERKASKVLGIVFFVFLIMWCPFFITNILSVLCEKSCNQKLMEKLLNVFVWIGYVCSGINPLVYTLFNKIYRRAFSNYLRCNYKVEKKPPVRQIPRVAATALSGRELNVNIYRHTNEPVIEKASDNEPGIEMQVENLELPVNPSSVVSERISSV

`Fc1cccc2c1OC1CNCC1O2` (stereo unspecified) [CAS_105182-45-4] gave a pKi of 6.00.
